Drawing on ChEMBL document CHEMBL3507680, “University of Dundee, Gates Library screen for HepG2 cell viability”, this text covers cytotoxicity for 70 compounds.

The data set can be described thus: Human HepG2 cell viability assay in 384 well format. It is filed as toxicity, cell-based. Also on record: dose 125 nL, time 70.5 hour; concentration not given beside the values. Particulars: HepG2 cells, read-out: Inhibition.
On to `CN(C)c1cc(CNC(=O)Nc2nncs2)ccn1`, for which the cytotoxicity at 70.5 h is -0.639%. With `Cc1noc([C@@H]2CC[C@@H]3[C@@H](CCN3c3nnc(C)s3)O2)n1` the figure was -8.18%; with `CC(C)C(C)(C#N)NC(=O)Cn1cc(I)cn1` (stereo not given), -3.37%. Take `COC(=O)CN1CC2(CCNCC2)COc2ccccc2S1(=O)=O`: the cytotoxicity at 70.5 h came to 6.67%.

Regarding `O=C(c1ccc(Sc2ccccn2)cc1)N1CCCSCC1`, the cytotoxicity at 70.5 h is -10.8%.

On to `Cc1cccc(C)c1CCNC(=O)N1CCCC2(C1)OCCO2`, for which the cytotoxicity at 70.5 h was -5.85%. To `O=C(NCCC1CCN(CC(F)(F)F)CC1)C1COCCO1` (stereo not given) belongs 0.242%; to `CN(C)S(=O)(=O)c1cccc(CNc2cc(CO)ccc2Cl)c1`, -13.5%; to `CCc1nc(CN(C(C)=O)C2CCN(CCc3ccncc3)C2)no1` (stereo not given), 11.6%. To `CN(c1ccc(C#N)cn1)C1CCCN(Cc2noc(C3CC3)n2)C1` (stereo not given) belongs -0.287%; to `CCc1ccc(C(=O)N2CCN(Cc3ccc(F)cc3)CC2)s1`, 4.63%; to `Cc1nc(C2CCN(C(=O)c3ccn(C)n3)CC2)c2sccn12`, -5.98%.

Regarding `Cc1nc(NS(=O)(=O)c2cccc(F)c2C)no1`, the cytotoxicity at 70.5 h amounted to 6.79%. Take `O=C1N(Cc2ccc(F)c(F)c2)CCCC1(O)CNCc1cccnc1` (stereo not given): the cytotoxicity at 70.5 h was -4.19%. On to `CCN1Cc2cc(F)ccc2N(C(=O)C2CCC2)CCC1=O`, for which the cytotoxicity at 70.5 h was -9.67%. As for `O=C(NCCN1CCOCC1)N(CCCO)C1CCCc2ccccc21` (stereo not given), the cytotoxicity at 70.5 h was -2.32%. `CN(Cc1ccc(F)cc1)CC1(O)CCN(C(=O)c2ccn(C)n2)C1` (stereo not given): the cytotoxicity at 70.5 h is -6.54%. With `COCCNC(=O)Cn1ccc2ccc(F)cc21`, the cytotoxicity at 70.5 h is -3.63%. Consider `Oc1cc(CCC2CCCCN2)cc(-c2cccnc2)c1` (stereo not given), for which the cytotoxicity at 70.5 h is -0.0954%. Regarding `CC(NCc1ccccn1)c1ccc(N2CCN(C)CC2)c(F)c1` (stereo not given), the cytotoxicity at 70.5 h came to 11.1%. With `CNc1ncc(-c2ccnn2C2CCN(C(C)=O)CC2)cn1` the figure was -7.63%; with `CC[C@]12CN3C[C@](C)(CN(C1)C3c1[nH]c(=O)[nH]c(=O)c1C)C2=O` (stereo not given in full), -2.75%; with `O=C1CC(c2cccc(O)c2)c2c(c(C(=O)O)cn2-c2ccccc2)N1` (stereo not given), 4.21%. Regarding `O=C(NCc1c[nH]c(=O)[nH]c1=O)C1CCOc2ccccc2C1` (stereo not given), the cytotoxicity at 70.5 h was 8.26%. In the case of `CCC(C)c1cc(C(=O)N(CC(=O)NC)c2cccc(F)c2)on1` (stereo not given), the cytotoxicity at 70.5 h was 20.8%. Turning to `CCN(CC)C(=O)Cn1cc(C(=O)NCCc2nc(C)c(C)s2)nn1`, the cytotoxicity at 70.5 h is -2.44%. For `CC(C)(C)NC(=O)CN1CCCN(Cc2cc(C#N)ccc2F)CC1`, the cytotoxicity at 70.5 h was found to be 4.54%. To `CCN(CC)S(=O)(=O)c1ccc(CNC(=O)N2CCCCCC2)cc1` belongs -7.35%; to `CCn1ccnc1CN(C)c1cc(N(C)C)ncn1`, 0.0154%. For `N#CCCn1cnc2c(Br)cccc2c1=O`, the cytotoxicity at 70.5 h is -14.7%. For the compound `CSc1cccc(CN(C)C(=O)Cn2ncc(N(C)C)cc2=O)c1`, the cytotoxicity at 70.5 h is -3.4%. Take `CCc1c(C)n(CC(C)=O)c2nc3ccccc3n2c1=O`: the cytotoxicity at 70.5 h is -18.1%. With `O=C([C@@H]1COC[C@H]2CN(c3ccncn3)C[C@H]21)N1CCCC1` the figure was 10.6%; with `COCC(=O)N1CC[C@H]2C[C@H](c3nnc(C4CC4)o3)O[C@@H]2C1`, -8.34%. In the case of `CNC(=O)CS(=O)(=O)Cc1coc(-c2ccc(OC)cc2)n1`, the cytotoxicity at 70.5 h was -12.7%.

In the case of `CN1CCCC(c2cncc(-c3cccc(C(F)(F)F)c3)n2)C1` (stereo not given), the cytotoxicity at 70.5 h is -8.63%. With `Cc1nc2c(c(C)c1CC(=O)Nc1ccccc1F)c(=O)[nH]n2C` the figure was 4.76%; with `Cc1c[nH]c(C(=O)N2CCn3nc(C(=O)NC4CC4)cc3C2)n1`, 24.5%; with `CCC(C)N(Cc1cnc(OC)nc1)Cc1ccsc1` (stereo not given), -3.9%. Turning to `CCN(CC)CCCNC(=O)C(C)n1cc(Br)cn1` (stereo not given), the cytotoxicity at 70.5 h was -1.37%.

With `COC(=O)CN(C(=O)c1ccoc1)c1cccc(F)c1`, the cytotoxicity at 70.5 h is -8.55%. Turning to `Cc1nccn1CCCC(=O)N1CCN(c2cccnc2)CC1`, the cytotoxicity at 70.5 h turned out to be 4.06%. With `CN(C)C[C@H]1C[C@@H]2CN(Cc3ccco3)C[C@@H]2O1` the figure was -16.1%; with `CCOC1CCN(C(=O)NCc2cccc(-n3cccn3)c2)CC1`, -5.08%; with `CNC(=O)C1CCCCN1C(=O)Cc1csc(-c2ccc(C)o2)n1` (stereo not given), -11.8%.

For `O=C(NCCCN1CCCC1=O)c1nc(-c2ccc3[nH]ccc3c2)no1`, the cytotoxicity at 70.5 h was -29.3%. `O=C(c1ccc(Oc2cccnc2)cc1)N1CCN(CCO)CC1`: the cytotoxicity at 70.5 h is -18.5%. In the case of `Cc1cc2nc(SCC(=O)NC(C)C)n(Cc3ccco3)c(O)c-2n1`, the cytotoxicity at 70.5 h was -14.4%. `COC(=O)C1CCN(C(=O)c2cccc(NS(C)(=O)=O)c2C)CC1`: the cytotoxicity at 70.5 h was -7.56%. With `CC(=O)N1CCC(N2CCOC[C@H]2c2nc(C(C)(C)C)c[nH]2)CC1`, the cytotoxicity at 70.5 h is -2.09%. Consider `COc1cccc(S(=O)(=O)N2CCCCC2CCN2CCOCC2)c1` (stereo not given), for which the cytotoxicity at 70.5 h turned out to be 24.6%. As for `CC(C)C(=O)N1CCCC([C@@H]2C[C@H](C(F)F)n3ncnc3N2)C1` (stereo not given in full), the cytotoxicity at 70.5 h was -3.96%. Turning to `Cc1nc(C2CCCN2C(=O)c2cc3c(s2)CCCC3)no1` (stereo not given), the cytotoxicity at 70.5 h was -3.98%. To `COc1ccc(-c2cc3nc([C@H](C)NC(=O)C4CC4)nn3cn2)cc1` belongs -0.493%; to `CCc1cnc(N2CC[C@H]3[C@@H]2CCC(=O)N3c2ccccc2)nc1`, 14.1%; to `COc1ccc(Cl)cc1NCC(=O)N(Cc1ccccn1)C1CC1`, -4.9%. As to `CCN(Cc1ccoc1)C(=O)c1ccncc1O`, the cytotoxicity at 70.5 h was -9.48%.

For `COCCNC(=O)C[C@@H]1COC[C@H]2CN(C(=O)COC)C[C@@H]12`, the cytotoxicity at 70.5 h was -8.18%. Take `CCC(=O)N1CCN(Cc2cc(-c3ccncc3)nn2C)CC1`: the cytotoxicity at 70.5 h came out at 5.2%. For `CCOc1no[n+]([O-])c1-c1ccccc1`, the cytotoxicity at 70.5 h was -3.07%.

On to `Cc1cccc(N2CCN(C(=O)Cc3ccccc3O)C(C)C2)n1` (stereo not given), for which the cytotoxicity at 70.5 h is -1.34%. With `CN1C(=O)CC(C(=O)O)C12CCN(Cc1ccc(Cl)cc1F)CC2` (stereo not given), the cytotoxicity at 70.5 h stood at 2.06%. Turning to `C[C@H]1C[C@H]2CN(C(=O)c3cccc4c3OCCO4)CC[C@H]2O1`, the cytotoxicity at 70.5 h came out at 32.2%. For the compound `O=C(NCCO)c1sc2ncccc2c1C1CN(C2CCCC2)CCO1` (stereo not given), the cytotoxicity at 70.5 h was -3.18%. For the compound `CCc1nnc(CN2CCOC(Cn3cccn3)C2)o1` (stereo not given), the cytotoxicity at 70.5 h was -8.14%. As for `CN(C)C(=O)CCS(=O)(=O)Cc1ccn(-c2cccc(F)c2)n1`, the cytotoxicity at 70.5 h is 4.33%.

In the case of `Cc1nccn1CCCNc1ccc(Cl)c(C#N)n1`, the cytotoxicity at 70.5 h was -24.8%. Regarding `OC[C@@H]1CCCN1c1ccc(-c2nc(COc3ccccc3)no2)cn1`, the cytotoxicity at 70.5 h was determined as 1.55%. To `CCN1Cc2cc(F)ccc2N(C(C)=O)CCC1=O` belongs -3.82%.

Consider `CCc1nc(CCNS(=O)(=O)c2cccc(C(=O)N(C)CC)c2)cs1`, for which the cytotoxicity at 70.5 h is -16%.
